The values that follow are results of earlier work, collected in patent US6652882B1, “Controlled release formulation containing bupropion” (Intellipharmaceutics Corp, priority 1997, dated 2003).

The conditions of data set [1]: oral administration; mammals such as rats and dogs.
For data set [2] the following is noted: during storage.

As to `CC(NC(C)(C)C)C(=O)c1cccc(Cl)c1` (racemic) [Bupropion, (±)-2-(tert-butylamino)3′-chloropropiophenone], the absolute bioavailability in data set [1] is recorded as 5% to 20. Further, in data set [2], the stability on storage entry is on record as “subject to hydrolytic decomposition during storage”.
